# Legend:
# [1] = Acute toxicity on oral administration, rat; settings: in vivo, SD rat, 3 weeks, Litchfield and Wilcoxon
# Protocol: (§1) Acute toxicity on oral administration
# (§2) Compound 1 was administered orally to the mice or rats to determine the acute toxicity.
# (§3) The LD50 values were determined according to Litchfield and Wilcoxon.
# (§4) The weight of the NMRI mice (NMRI : Naval Medical Research Institute) is 20 to 25 g and that of the SD rats (SD: Sprague-Dawley) is 120 to 165 g. The mice were fasted for about 18 hours before the test. They are fed normally again 5 hours after administration of the substances tested. After 3 weeks, the animals were sacrificed by means of chloroform and dissected. 6 animals are used per dose.
# [2] = Acute toxicity after intraperitoneal administration, mouse; settings: in vivo, ip, NMRI mouse, 3 weeks, Litchfield and Wilcoxon
# Protocol: Acute toxicity after intraperitoneal administration
# The acute toxicity after intraperitoneal administration of the test substances was carried out using NMRI mice (20 to 25 g) and SD rats (120 to 195 g). The test substance was suspended in a 1% strength sodium carboxymethyl cellulose solution. The various doses of the test substance were administered to the mice in a volume of 10 ml/kg of body weight and to the rats in a volume of 5 ml/kg of body weight. 10 animals were used per dose. After 3 weeks, the acute toxicity was determined according to the method of Litchfield and Wilcoxon.
# [3] = test system: CTLL mouse T cell line (Tc clone IL-2); test: Cell proliferation test, CTLL; assay type: cell-based; settings: 72 h, read-out: ED50 (concentration at which a 50% inhibition occurs)
# Protocol: (§5) The cell culture in vitro proliferation test was used as an activity test for chemotherapeutics.
# (§6) Clicks/RPMI 1640 medium (50:50) containing L-glutamine without any NaHCO3, in the form of powder for 10 1 (Seromed, Biochrom, Berlin, FRG) is dissolved in 9 l of double-distilled water, and sterile filtered into 900 ml bottles.
# (§7) 900 ml of base medium are buffered using 9.5 ml of 7.5% strength sodium hydrogencarbonate solution and 5 ml of HEPES (N-2-hydroxyethyl-piperazine-N-2 ethanesulfonic acid) (Gibco, Eggenstein, FRG).
# (§8) 900 ml of base medium plus 19 ml of NaHCO3 solution (7.5%; 10 ml of HEPES solution and 10 ml of L-glutamine solution (200 mM)).
# (§9) For keeping the tumor cells and hybridoma cells, working medium containing 5% FCS is prepared. […]
# (§10) The proliferation test was carried out in round bottom microtiter plates. […] In all tests, the values were determined four times. […] The value of the negative control was subtracted from all values determined and the difference of positive control minus negative control was set at 100%.
# (§11) The plates were incubated at 37° C./5% CO2 for 72 h and the proliferation rate was determined correspondingly as with the mitogen-induced lymphocyte proliferation. […]
# [4] = test system: HT-2 mouse T cell line (IL-2); test: Cell proliferation test, HT-2; assay type: cell-based; settings: 72 h, read-out: ED50 (concentration at which a 50% inhibition occurs)
# Protocol: as §5, §6, §7, §8, §9, §10, §11
# [5] = test system: CTL-J-K mouse T cell line (Tc, IL-2); test: Cell proliferation test, CTL-J-K; assay type: cell-based; settings: 72 h, read-out: ED50 (concentration at which a 50% inhibition occurs)
# Protocol: as §5, §6, §7, §8, §9, §10, §11
# [6] = test system: Cl 9/4 mouse T cell line (IL-4 dep.); test: Cell proliferation test, Cl 9/4; assay type: cell-based; settings: 72 h, read-out: ED50 (concentration at which a 50% inhibition occurs)
# Protocol: as §5, §6, §7, §8, §9, §10, §11
# [7] = test system: K III 5 mouse T cell line (Th, IL-2); test: Cell proliferation test, K III 5; assay type: cell-based; settings: 72 h, read-out: ED50 (concentration at which a 50% inhibition occurs)
# Protocol: as §5, §6, §7, §8, §9, §10, §11
# Spleen T (con A and PWM) = test: Mitogen-induced lymphocyte proliferation, Spleen T; assay type: cell-based; settings: Mus musculus, T-cell, 64 h, 48 h + 16 h with tritium thymidine, read-out: ED50 (concentration at which a 50% inhibition occurs)
# Protocol: as §5, §6, §7, §8
# (§12) Medium for mitogen-induced lymphocyte proliferation. Working medium containing 1% heat-inactivated (30 min, 56° C.) fetal calf serum (FCS) is prepared.
# (§13) The mice are sacrificed by cervical dislocation and the spleens are removed under sterile conditions. The spleens are shredded on a sterile sieve having a mesh width of 80 "mesh" and are carefully transferred to a Petri dish containing working medium using the plunger of a plastic syringe (10 ml). […]
# (§14) The group with mitogen additions and without preparation were defined as positive controls. […] The amount of radioactivity incorporated by these cells is measured in a beta counter (Packard, Tricarb 460c).
# Spleen B (LPS) = test: Mitogen-induced lymphocyte proliferation, Spleen B; assay type: cell-based; settings: Mus musculus, B-cell, 64 h, 48 h + 16 h with tritium thymidine, read-out: ED50 (concentration at which a 50% inhibition occurs)
# Protocol: as §5, §6, §7, §8, §12, §13, §14
# [8] = test system: A20 2J mouse B cell tumor (BALB/c); test: Cell proliferation test, A20 2J; assay type: cell-based; settings: 72 h, read-out: ED50 (concentration at which a 50% inhibition occurs)
# Protocol: as §5, §6, §7, §8, §9, §10, §11
# [9] = test system: TRK 4 mouse B cell hybridoma; test: Cell proliferation test, TRK 4; assay type: cell-based; settings: 72 h, read-out: ED50 (concentration at which a 50% inhibition occurs)
# Protocol: as §5, §6, §7, §8, §9, §10, §11
# [10] = test system: TRK 5 mouse B cell hybridoma; test: Cell proliferation test, TRK 5; assay type: cell-based; settings: 72 h, read-out: ED50 (concentration at which a 50% inhibition occurs)
# Protocol: as §5, §6, §7, §8, §9, §10, §11
# [11] = test system: Bone marrow mouse (M-CSF, GM CSF); test: Cell proliferation test, bone marrow; assay type: cell-based; settings: 72 h, read-out: ED50 (concentration at which a 50% inhibition occurs)
# Protocol: as §5, §6, §7, §8, §9, §10, §11
# [12] = test system: WEHI 279 mouse B cell lymphoma; test: Cell proliferation test, WEHI 279; assay type: cell-based; settings: 72 h, read-out: ED50 (concentration at which a 50% inhibition occurs)
# Protocol: as §5, §6, §7, §8, §9, §10, §11
# P 388 D1 mouse Mo tumor = test: Cell proliferation test, P 388 D1; assay type: cell-based; settings: P388D1, 72 h, read-out: ED50 (concentration at which a 50% inhibition occurs)
# Protocol: as §5, §6, §7, §8, §9, §10, §11
# [13] = test system: 7TD1 mouse B cell hybridoma (IL-6); test: Cell proliferation test, 7TD1; assay type: cell-based; settings: 72 h, read-out: ED50 (concentration at which a 50% inhibition occurs)
# Protocol: as §5, §6, §7, §8, §9, §10, §11
# [14] = test system: PB-3C mouse mast cell line (IL-3); test: Cell proliferation test, PB-3C; assay type: cell-based; settings: 72 h, read-out: ED50 (concentration at which a 50% inhibition occurs)
# Protocol: as §5, §6, §7, §8, §9, §10, §11
# DA-1 mouse tumor (IL-3) = test: Cell proliferation test, DA-1; assay type: cell-based; settings: 72 h, read-out: ED50 (concentration at which a 50% inhibition occurs)
# Protocol: as §5, §6, §7, §8, §9, §10, §11
# 7D4 rat hybridoma = test: Cell proliferation test, 7D4; assay type: cell-based; settings: 72 h, read-out: ED50 (concentration at which a 50% inhibition occurs)
# Protocol: as §5, §6, §7, §8, §9, §10, §11
# [15] = test system: A431 human epidermoid carcinoma; test: Cell proliferation test, A431; assay type: cell-based; settings: A-431, 72 h, read-out: ED50 (concentration at which a 50% inhibition occurs)
# Protocol: as §5, §6, §7, §8, §9, §10, §11
# [16] = test system: KB human epidermoid carcinoma; test: Cell proliferation test, KB; assay type: cell-based; settings: 72 h, read-out: ED50 (concentration at which a 50% inhibition occurs)
# Protocol: as §5, §6, §7, §8, §9, §10, §11
# [17] = test system: HFF human foreskin fibroblast; test: Cell proliferation test, HFF; assay type: cell-based; settings: 72 h, read-out: ED50 (concentration at which a 50% inhibition occurs)
# Protocol: as §5, §6, §7, §8, §9, §10, §11
# [18] = test system: HL-60 human promyelomonocytic leukemia; test: Cell proliferation test, HL-60; assay type: cell-based; settings: 72 h, read-out: ED50 (concentration at which a 50% inhibition occurs)
# Protocol: as §5, §6, §7, §8, §9, §10, §11
# [19] = Acute toxicity on oral administration, mouse; settings: in vivo, NMRI mouse, 3 weeks, Litchfield and Wilcoxon
# Protocol: as §1, §2, §3, §4
smiles,measurement,setting,value
"C/C(O)=C(\C#N)C(=O)Nc1ccc(C(F)(F)F)cc1 [Compound 2, N-(4-trifluoromethylphenyl)-2-cyano-3-hydroxycrotonamide]",LD50 at 504 h,[1],160 mg/kg
same,LD50 at 504 h,[2],100 to 200 mg/kg
"Cc1oncc1C(=O)Nc1ccc(C(F)(F)F)cc1 [Compound 1, 5-methylisoxazole-4-carboxylic acid (4-trifluoromethyl)anilide]",IC50,[3],40 to 50 µM
same,IC50,[4],40 to 50 µM
same,IC50,[5],40 to 50 µM
same,IC50,[6],25 µM
same,IC50,[7],1 to 3 µM
same,IC50,Spleen T (con A and PWM),10 µM
same,IC50,Spleen B (LPS),10 µM
same,IC50,[8],1 to 3 µM
same,IC50,[9],5 µM
same,IC50,[10],5 µM
same,IC50,[11],5 µM
same,IC50,[12],≤ 1 µM
same,IC50,P 388 D1 mouse Mo tumor,10 µM
same,IC50,[13],10 µM
same,IC50,[14],20 µM
same,IC50,DA-1 mouse tumor (IL-3),5 µM
same,IC50,7D4 rat hybridoma,≤ 1 µM
same,IC50,[15],15 µM
same,IC50,[16],15 µM
same,IC50,[17],40 µM
same,IC50,[18],25 µM
same,LD50 at 504 h,[19],445 mg/kg
same,LD50 at 504 h,[1],235 mg/kg

# — patent US5532259A, “Isoxazole-4-carboxamides and hydroxyalkylidenecyanoacetamides, pharmaceuticals containing these compounds and their use” (Hoechst Aktiengesellschaft, priority 1990, dated 1996)
